Measurements reported in ChEMBL document CHEMBL5291721, “A preclinical secondary pharmacology resource illuminates target-adverse drug reaction associations of marketed drugs” (Nat Commun, 2023).

Legend:
Adenosine receptor A1 = biological target: T1, Adenosine receptor A1 (Homo sapiens, UniProt P30542)
T1 sequence (P30542 whole entry): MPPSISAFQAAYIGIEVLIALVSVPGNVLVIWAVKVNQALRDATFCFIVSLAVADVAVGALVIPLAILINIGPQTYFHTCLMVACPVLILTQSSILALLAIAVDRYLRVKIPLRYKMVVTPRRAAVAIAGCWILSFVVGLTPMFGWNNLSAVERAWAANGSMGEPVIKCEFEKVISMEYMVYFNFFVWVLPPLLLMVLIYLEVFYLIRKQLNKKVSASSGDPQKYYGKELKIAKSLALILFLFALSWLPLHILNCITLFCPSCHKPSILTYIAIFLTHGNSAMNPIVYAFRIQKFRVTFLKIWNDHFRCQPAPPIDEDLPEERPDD

[1] = biological target: Beta-2 adrenergic receptor (Homo sapiens, UniProt P07550)
Chain of Beta-2 adrenergic receptor (P07550 whole entry): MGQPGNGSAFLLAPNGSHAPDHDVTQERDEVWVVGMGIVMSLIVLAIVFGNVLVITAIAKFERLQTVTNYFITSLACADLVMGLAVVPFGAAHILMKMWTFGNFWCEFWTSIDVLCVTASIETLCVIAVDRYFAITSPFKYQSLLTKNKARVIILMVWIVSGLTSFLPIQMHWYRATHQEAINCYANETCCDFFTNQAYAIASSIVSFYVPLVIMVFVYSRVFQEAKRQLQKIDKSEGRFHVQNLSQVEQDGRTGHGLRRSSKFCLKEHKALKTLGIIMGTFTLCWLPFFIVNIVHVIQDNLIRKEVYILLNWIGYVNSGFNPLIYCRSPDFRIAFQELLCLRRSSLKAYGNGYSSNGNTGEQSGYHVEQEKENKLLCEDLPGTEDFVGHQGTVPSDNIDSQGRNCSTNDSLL

B2 bradykinin receptor = biological target: T2, B2 bradykinin receptor (Homo sapiens, UniProt P30411)
T2 sequence (P30411 whole entry): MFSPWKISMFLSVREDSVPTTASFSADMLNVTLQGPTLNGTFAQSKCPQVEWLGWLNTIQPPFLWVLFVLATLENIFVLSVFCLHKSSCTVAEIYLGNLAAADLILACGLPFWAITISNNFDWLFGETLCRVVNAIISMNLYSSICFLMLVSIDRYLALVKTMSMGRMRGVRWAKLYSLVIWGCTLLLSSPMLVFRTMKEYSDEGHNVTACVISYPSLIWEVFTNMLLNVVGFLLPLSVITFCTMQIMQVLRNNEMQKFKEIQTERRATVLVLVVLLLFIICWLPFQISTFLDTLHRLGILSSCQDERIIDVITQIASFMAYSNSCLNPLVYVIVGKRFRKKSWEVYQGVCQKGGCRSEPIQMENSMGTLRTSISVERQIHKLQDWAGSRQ

[2] = biological target: T3, Cholecystokinin receptor type A (Homo sapiens, UniProt P32238)
T3 sequence (P32238 whole entry): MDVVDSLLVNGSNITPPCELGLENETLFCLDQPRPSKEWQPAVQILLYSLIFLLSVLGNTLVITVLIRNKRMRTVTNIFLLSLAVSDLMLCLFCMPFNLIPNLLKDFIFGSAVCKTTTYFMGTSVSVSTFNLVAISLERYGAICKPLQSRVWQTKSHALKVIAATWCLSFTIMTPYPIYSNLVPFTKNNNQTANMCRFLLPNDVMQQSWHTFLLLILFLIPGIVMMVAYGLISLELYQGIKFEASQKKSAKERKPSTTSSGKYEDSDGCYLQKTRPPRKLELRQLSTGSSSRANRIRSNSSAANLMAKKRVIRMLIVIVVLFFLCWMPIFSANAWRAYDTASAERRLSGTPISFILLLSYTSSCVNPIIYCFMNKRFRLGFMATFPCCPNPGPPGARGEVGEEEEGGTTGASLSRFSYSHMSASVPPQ

Cannabinoid receptor 1 [3] = biological target: T4, Cannabinoid receptor 1 (Homo sapiens, UniProt P21554); type: functional, cell-based
T4 sequence (P21554 whole entry): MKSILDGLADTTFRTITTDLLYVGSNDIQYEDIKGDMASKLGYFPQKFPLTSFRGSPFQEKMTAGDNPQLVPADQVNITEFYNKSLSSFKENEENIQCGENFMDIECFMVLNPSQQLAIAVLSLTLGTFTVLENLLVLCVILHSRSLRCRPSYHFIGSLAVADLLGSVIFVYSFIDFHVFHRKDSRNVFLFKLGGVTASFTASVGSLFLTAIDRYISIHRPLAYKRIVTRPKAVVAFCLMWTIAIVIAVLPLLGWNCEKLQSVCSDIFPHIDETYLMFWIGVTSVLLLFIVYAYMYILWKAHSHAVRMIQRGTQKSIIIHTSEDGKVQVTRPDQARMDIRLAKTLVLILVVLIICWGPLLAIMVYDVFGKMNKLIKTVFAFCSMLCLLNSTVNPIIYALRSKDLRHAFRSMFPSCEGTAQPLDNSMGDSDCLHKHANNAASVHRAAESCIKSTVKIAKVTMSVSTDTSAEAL

Cannabinoid receptor 1 [4] = biological target: T4, Cannabinoid receptor 1
Melanocortin receptor 4 = Melanocortin receptor 4 (Homo sapiens, UniProt P32245)
Chain of Melanocortin receptor 4 (P32245 whole entry): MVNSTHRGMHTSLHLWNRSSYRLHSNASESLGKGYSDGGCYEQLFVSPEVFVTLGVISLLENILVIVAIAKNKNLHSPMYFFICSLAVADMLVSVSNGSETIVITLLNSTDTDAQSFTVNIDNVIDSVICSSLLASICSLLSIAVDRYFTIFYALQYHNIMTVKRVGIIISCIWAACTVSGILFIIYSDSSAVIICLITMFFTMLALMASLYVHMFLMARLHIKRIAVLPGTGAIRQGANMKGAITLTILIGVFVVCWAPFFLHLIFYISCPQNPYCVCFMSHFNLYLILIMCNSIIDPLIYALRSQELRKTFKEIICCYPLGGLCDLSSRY

Mu-type opioid receptor = Mu-type opioid receptor (Homo sapiens, UniProt P35372)
Chain of Mu-type opioid receptor (P35372 whole entry): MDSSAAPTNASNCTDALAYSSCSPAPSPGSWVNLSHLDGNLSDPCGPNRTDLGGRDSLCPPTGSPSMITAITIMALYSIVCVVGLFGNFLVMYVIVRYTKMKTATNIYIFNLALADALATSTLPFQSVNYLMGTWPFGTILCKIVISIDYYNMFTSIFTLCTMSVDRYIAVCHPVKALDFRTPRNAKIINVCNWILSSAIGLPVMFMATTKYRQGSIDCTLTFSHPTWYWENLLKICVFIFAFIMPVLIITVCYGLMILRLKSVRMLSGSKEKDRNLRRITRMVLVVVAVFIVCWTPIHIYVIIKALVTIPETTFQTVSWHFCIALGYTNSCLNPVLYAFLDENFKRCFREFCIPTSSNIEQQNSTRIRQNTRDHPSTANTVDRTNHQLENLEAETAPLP

[5] = biological target: T5, Alpha-1A adrenergic receptor (Homo sapiens, UniProt P35348); type: functional, cell-based
T5 sequence (P35348 whole entry): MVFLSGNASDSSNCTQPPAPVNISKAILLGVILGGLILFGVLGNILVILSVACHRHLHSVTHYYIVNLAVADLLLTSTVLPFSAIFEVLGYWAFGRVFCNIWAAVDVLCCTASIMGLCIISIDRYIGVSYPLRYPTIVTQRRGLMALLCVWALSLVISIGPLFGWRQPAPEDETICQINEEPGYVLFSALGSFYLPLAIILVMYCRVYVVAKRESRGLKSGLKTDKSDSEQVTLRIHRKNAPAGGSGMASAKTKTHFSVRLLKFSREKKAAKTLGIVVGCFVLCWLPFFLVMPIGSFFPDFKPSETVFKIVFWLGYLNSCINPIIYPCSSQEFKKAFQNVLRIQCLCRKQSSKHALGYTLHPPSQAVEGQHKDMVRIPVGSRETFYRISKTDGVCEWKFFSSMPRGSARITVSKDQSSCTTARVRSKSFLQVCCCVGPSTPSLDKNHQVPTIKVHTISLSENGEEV

[6] = biological target: T6, Alpha-2B adrenergic receptor (Homo sapiens, UniProt P18089)
T6 sequence (P18089 whole entry): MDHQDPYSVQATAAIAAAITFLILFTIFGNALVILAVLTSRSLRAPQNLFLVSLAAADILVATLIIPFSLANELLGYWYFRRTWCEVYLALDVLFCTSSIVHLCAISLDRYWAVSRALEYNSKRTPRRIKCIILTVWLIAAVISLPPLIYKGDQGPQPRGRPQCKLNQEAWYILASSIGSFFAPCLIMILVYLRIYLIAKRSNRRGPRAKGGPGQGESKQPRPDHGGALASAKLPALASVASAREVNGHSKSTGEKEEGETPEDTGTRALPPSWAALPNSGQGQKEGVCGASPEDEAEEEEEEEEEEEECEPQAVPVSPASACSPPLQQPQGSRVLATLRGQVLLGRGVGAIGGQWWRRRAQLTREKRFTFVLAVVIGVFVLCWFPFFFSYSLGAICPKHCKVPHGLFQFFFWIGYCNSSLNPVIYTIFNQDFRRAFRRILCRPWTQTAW

[7] = biological target: T7, Muscarinic acetylcholine receptor M1 (Homo sapiens, UniProt P11229); type: functional
T7 sequence (P11229 whole entry): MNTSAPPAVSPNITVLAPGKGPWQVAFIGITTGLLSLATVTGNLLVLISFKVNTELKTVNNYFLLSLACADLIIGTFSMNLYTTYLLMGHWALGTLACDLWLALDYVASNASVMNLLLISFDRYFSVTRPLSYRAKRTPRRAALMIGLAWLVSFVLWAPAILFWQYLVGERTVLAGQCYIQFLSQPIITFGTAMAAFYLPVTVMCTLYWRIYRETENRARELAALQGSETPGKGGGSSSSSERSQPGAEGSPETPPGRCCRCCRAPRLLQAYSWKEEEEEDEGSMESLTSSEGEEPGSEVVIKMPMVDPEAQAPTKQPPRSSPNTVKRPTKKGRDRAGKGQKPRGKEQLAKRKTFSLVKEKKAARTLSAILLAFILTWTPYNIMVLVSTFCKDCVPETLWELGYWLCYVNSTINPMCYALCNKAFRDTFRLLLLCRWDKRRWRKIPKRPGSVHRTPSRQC

[8] = biological target: Muscarinic acetylcholine receptor M3 (Homo sapiens, UniProt P20309)
Chain of Muscarinic acetylcholine receptor M3 (P20309 whole entry): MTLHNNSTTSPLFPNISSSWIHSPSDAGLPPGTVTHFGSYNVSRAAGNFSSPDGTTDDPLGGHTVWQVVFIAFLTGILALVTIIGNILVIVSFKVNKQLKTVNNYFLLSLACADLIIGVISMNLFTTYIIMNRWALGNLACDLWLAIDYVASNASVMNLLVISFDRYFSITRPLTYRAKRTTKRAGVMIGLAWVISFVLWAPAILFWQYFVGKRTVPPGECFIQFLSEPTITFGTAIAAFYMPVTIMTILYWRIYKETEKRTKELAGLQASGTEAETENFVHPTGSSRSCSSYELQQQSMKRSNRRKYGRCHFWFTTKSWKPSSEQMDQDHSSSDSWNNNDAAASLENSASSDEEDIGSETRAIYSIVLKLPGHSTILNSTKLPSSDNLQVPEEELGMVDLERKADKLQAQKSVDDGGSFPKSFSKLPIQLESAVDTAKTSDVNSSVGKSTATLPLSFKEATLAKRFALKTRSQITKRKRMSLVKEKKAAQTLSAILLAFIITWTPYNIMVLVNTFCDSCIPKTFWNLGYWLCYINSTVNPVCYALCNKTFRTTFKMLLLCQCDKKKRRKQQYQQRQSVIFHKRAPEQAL
Also: assay procedure not described here.

Structure (SMILES) | AC50 (Adenosine receptor A1) | AC50 [1] | AC50 (B2 bradykinin receptor) | AC50 [2] | AC50 (Cannabinoid receptor 1 [3]) | AC50 (Cannabinoid receptor 1 [4]) | AC50 (Melanocortin receptor 4) | AC50 (Mu-type opioid receptor) | AC50 [5] | AC50 [6] | AC50 [7] | AC50 [8]
Cc1cc(=O)n(-c2ccccc2)n1C [ANTIPYRINE] | > 30 µM | > 10 µM | > 30 µM | > 30 µM | > 30 µM | > 10 µM | > 30 µM | > 30 µM | > 30 µM | – | – | –
O=C(O)c1ccc(NC(=O)[C@H](Cc2ccc(O)cc2)NC(=O)c2ccccc2)cc1 [BENTIROMIDE] | > 10 µM | > 10 µM | > 10 µM | > 10 µM | – | > 10 µM | > 10 µM | > 30 µM | – | > 10 µM | > 10 µM | > 30 µM
NS(=O)(=O)c1cc2c(cc1Cl)N=C(CSCc1ccccc1)NS2(=O)=O [BENZTHIAZIDE] | > 10 µM | > 10 µM | > 10 µM | > 10 µM | – | > 10 µM | > 10 µM | > 30 µM | – | 7.4 µM | > 30 µM | > 30 µM
COc1cc(N)c(Cl)cc1C(=O)NC1CCN(CCCOc2ccc(F)cc2)CC1OC (stereo unspecified) [CISAPRIDE] | > 30 µM | > 10 µM | > 30 µM | > 30 µM | > 30 µM | > 10 µM | > 30 µM | > 30 µM | – | – | – | –
CCOC(=O)C(C)(C)Oc1ccc(Cl)cc1 [CLOFIBRATE] | > 30 µM | > 10 µM | > 30 µM | > 30 µM | > 30 µM | > 10 µM | > 30 µM | > 30 µM | > 30 µM | – | – | –
C[C@@H]1C[C@H]2[C@@H]3CCC4=CC(=O)C=C[C@]4(C)[C@@]3(F)[C@@H](O)C[C@]2(C)[C@@]1(O)C(=O)CO [DEXAMETHASONE] | > 30 µM | > 30 µM | > 30 µM | > 30 µM | – | > 10 µM | > 30 µM | > 30 µM | – | – | – | –
CC(C)[C@@H](C)/C=C/[C@@H](C)[C@H]1CC[C@H]2/C(=C/C=C3\C[C@@H](O)CC[C@@H]3C)CCC[C@]12C [DIHYDROTACHYSTEROL] | > 10 µM | > 10 µM | > 10 µM | > 10 µM | – | > 10 µM | > 10 µM | > 30 µM | – | > 10 µM | > 10 µM | > 30 µM
CCOC(=O)c1ncn2c1CN(C)C(=O)c1cc(F)ccc1-2 [FLUMAZENIL] | > 30 µM | > 30 µM | > 30 µM | > 30 µM | – | > 30 µM | > 30 µM | > 30 µM | > 30 µM | – | – | –
NNC(=O)c1ccncc1 [ISONIAZID] | > 30 µM | > 30 µM | > 30 µM | > 30 µM | > 30 µM | > 30 µM | > 30 µM | > 30 µM | > 30 µM | – | – | –
O=C1Nc2ccc(Cl)cc2C(c2ccccc2Cl)=NC1O (stereo unspecified) [LORAZEPAM] | > 30 µM | > 10 µM | > 30 µM | > 30 µM | > 30 µM | > 10 µM | > 30 µM | > 30 µM | > 30 µM | – | – | –
CCCC(C)(COC(N)=O)COC(N)=O [MEPROBAMATE] | > 10 µM | > 10 µM | > 10 µM | > 10 µM | – | > 10 µM | > 10 µM | > 30 µM | – | > 10 µM | > 30 µM | > 30 µM
COc1ccc2cc(CCC(C)=O)ccc2c1 [NABUMETONE] | > 10 µM | > 10 µM | > 10 µM | > 10 µM | – | > 10 µM | > 10 µM | > 30 µM | > 30 µM | – | – | –
Cc1ccnc2c1NC(=O)c1cccnc1N2C1CC1 [NEVIRAPINE] | 31.2 µM | > 10 µM | > 30 µM | > 30 µM | > 30 µM | > 10 µM | > 30 µM | > 10 µM | > 30 µM | – | – | –
O=C(c1cc(Cc2n[nH]c(=O)c3ccccc23)ccc1F)N1CCN(C(=O)C2CC2)CC1 [OLAPARIB] | 11.9 µM | > 30 µM | > 30 µM | > 30 µM | – | > 10 µM | > 30 µM | > 30 µM | – | > 10 µM | > 10 µM | > 30 µM
NC(=O)NC(=O)Cc1ccccc1 [PHENACEMIDE] | > 10 µM | > 10 µM | > 10 µM | > 10 µM | – | > 10 µM | > 10 µM | > 30 µM | – | – | – | –
CCCN(CCC)S(=O)(=O)c1ccc(C(=O)O)cc1 [PROBENECID] | > 10 µM | > 10 µM | > 10 µM | > 10 µM | – | > 10 µM | > 10 µM | > 30 µM | – | – | – | –
CC1=C(/C=C/C(C)=C/C=C/C(C)=C/CO)C(C)(C)CCC1 [RETINOL] | > 10 µM | > 10 µM | > 10 µM | > 10 µM | – | > 10 µM | > 10 µM | > 30 µM | – | > 30 µM | > 10 µM | > 30 µM
Cc1cc(C)nc(NS(=O)(=O)c2ccc(N)cc2)n1 [SULFAMETHAZINE] | > 10 µM | > 10 µM | > 10 µM | > 10 µM | – | > 10 µM | > 10 µM | > 30 µM | – | – | – | –
CC(c1cc2ccccc2s1)N(O)C(N)=O (stereo unspecified) [ZILEUTON] | > 10 µM | > 10 µM | > 10 µM | > 10 µM | > 30 µM | > 10 µM | > 10 µM | > 30 µM | > 30 µM | – | – | –
